The values below are quoted from earlier work in patent US5990112A, “Inhibitors of metalloproteases pharmaceutical compositions comprising same and methods of their use” (Affymax Technologies N.V., priority 1996, dated 1999).

As usually defined, the IC50 is the concentration at which inhibition is half-maximal.

Data set [1] has as its target human rheumatoid synovial collagenase.
Data set [2] concerns the target rabbit bone proteoglycanase. As to conditions: Delaisse et al. 1985.

Turning to `CNC(=O)[C@H](Cc1ccc(OC)cc1)NC(=O)[C@H](CC(C)C)NC(CCNC(=O)OCc1ccccc1)C(=O)O` (stereo partly drawn) [N-[3-(benzyloxy-carbonyl)amino-1-carboxy-n-propyl]-L-leucyl-O-methyl-L-tyrosine, N-methylamide], the IC50 in data set [1] is less than 8000 nM; in data set [2], 500 nM.
